Assay results reported in ChEMBL document CHEMBL1201862, “PubChem BioAssay data set” (2004).
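Grown in 96-well plates, cells were treated for 48 hours with each compound at five concentrations. Insufficient inhibition: endpoint recorded as highest concentration tested. At the GI50, growth is halved.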 Active and inactive are the calls of the source. Rule as the data show it: active = GI50 up to about 1.1 µM and inactive = higher.

Columns and labels:
Assay in all cases: NCI tumour cell line growth inhibition, 48 h
TK-10 = test system: TK-10
KM12 = test system: KM12
Malme-3M = test system: Malme-3M
A549 = test system: A549
UACC-62 = test system: UACC-62
A498 = test system: A498
RXF 393 = test system: RXF 393
SK-MEL-28 = test system: SK-MEL-28
HOP-62 = test system: HOP-62
NCI-H460 = test system: NCI-H460
U-251 = test system: U-251
IGROV-1 = test system: IGROV-1
NCI-H23 = test system: NCI-H23
COLO 205 = test system: COLO 205
SF-539 = test system: SF-539
CAKI-1 = test system: CAKI-1
NCI-H226 = test system: NCI-H226
SNB-19 = test system: SNB-19
K562 = test system: K562
OVCAR-5 = test system: OVCAR-5

Structure (SMILES) | GI50 (TK-10) | GI50 (KM12) | GI50 (Malme-3M) | GI50 (A549) | GI50 (UACC-62) | GI50 (A498) | GI50 (RXF 393) | GI50 (SK-MEL-28) | GI50 (HOP-62) | GI50 (NCI-H460) | GI50 (U-251) | GI50 (IGROV-1) | GI50 (NCI-H23) | GI50 (COLO 205) | GI50 (SF-539) | GI50 (CAKI-1) | GI50 (NCI-H226) | GI50 (SNB-19) | GI50 (K562) | GI50 (OVCAR-5)
CC(=O)OC1c2ccccc2CCCCCCC12OCCO2 (stereo not given) | > 100 µM (inactive) | > 100 µM (inactive) | 92.5 µM (inactive) | > 100 µM (inactive) | > 100 µM (inactive) | > 100 µM (inactive) | > 100 µM (inactive) | > 100 µM (inactive) | > 100 µM (inactive) | > 100 µM (inactive) | > 100 µM (inactive) | > 100 µM (inactive) | > 100 µM (inactive) | > 100 µM (inactive) | > 100 µM (inactive) | 51.9 µM (inactive) | > 100 µM (inactive) | > 100 µM (inactive) | 55.2 µM (inactive) | > 100 µM (inactive)
COc1c(C)c(OC)c2c(c1O)[C@@H]1[C@@H]3Cc4c(OC)c(C)c(OC)c(O)c4[C@H](CNC(=O)c4ccc5ccccc5n4)N3[C@@H](C#N)[C@H](C2)N1C | 0.000444 µM (active) | 0.000371 µM (active) | 0.000162 µM (active) | 0.00263 µM (active) | 0.000411 µM (active) | 0.000629 µM (active) | 0.00136 µM (active) | 0.00251 µM (active) | 0.00112 µM (active) | 0.00224 µM (active) | 0.000632 µM (active) | 0.000147 µM (active) | 0.000459 µM (active) | 0.000891 µM (active) | 0.0017 µM (active) | 0.00401 µM (active) | 0.00143 µM (active) | 0.00569 µM (active) | 0.000537 µM (active) | 0.000726 µM (active)
O=C1C=C(OCCCCl)C(=O)c2c(O)ccc(O)c21 | 1.81 µM (inactive) | 1.78 µM (inactive) | 0.167 µM (active) | 0.266 µM (active) | 0.286 µM (active) | 2.13 µM (inactive) | 1.69 µM (inactive) | 0.843 µM (active) | 1.42 µM (inactive) | 1.21 µM (inactive) | 2.01 µM (inactive) | 1.8 µM (inactive) | 0.237 µM (active) | 0.245 µM (active) | 1.38 µM (inactive) | 1.85 µM (inactive) | 1.84 µM (inactive) | 1.8 µM (inactive) | 1.26 µM (inactive) | 1.43 µM (inactive)
CC(=O)NC(CCCNCc1ccccc1)C(=O)NCc1ccccc1 (stereo not given) | > 100 µM (inactive) | > 100 µM (inactive) | > 100 µM (inactive) | > 100 µM (inactive) | > 100 µM (inactive) | > 100 µM (inactive) | > 100 µM (inactive) | > 100 µM (inactive) | > 100 µM (inactive) | > 100 µM (inactive) | > 100 µM (inactive) | > 100 µM (inactive) | > 100 µM (inactive) | > 100 µM (inactive) | > 100 µM (inactive) | > 100 µM (inactive) | > 100 µM (inactive) | > 100 µM (inactive) | > 100 µM (inactive) | > 100 µM (inactive)
COc1nc(N)nc2c1ncn2C1CC(O)C(CO)O1 (stereo not given) | > 100 µM (inactive) | > 100 µM (inactive) | > 100 µM (inactive) | > 100 µM (inactive) | > 100 µM (inactive) | > 100 µM (inactive) | > 100 µM (inactive) | > 100 µM (inactive) | > 100 µM (inactive) | > 100 µM (inactive) | > 100 µM (inactive) | > 100 µM (inactive) | > 100 µM (inactive) | > 100 µM (inactive) | > 100 µM (inactive) | > 100 µM (inactive) | > 100 µM (inactive) | > 100 µM (inactive) | > 100 µM (inactive) | > 100 µM (inactive)
